Consider eight compounds from patent publication US6337351B1, “Pharmaceutical compositions and methods for use” (Targacept, Inc., priority 1998, dated 2002).

For one experiment, the system named is dopamine release. As to the kind of experiment: Dopamine release. Conditions: for Emax: amount released relative to (S)-(-)-nicotine. It is filed as cell-based. On the procedure: Determination of Dopamine Release
Dopamine release was measured using the techniques described in U.S. Pat. No. 5,597,919 to Dull et al. Release is expressed as a percentage of release obtained with a concentration of (S)-(−)-nicotine resulting in maximal effects. Reported EC50 values are expressed in nM, and Emax values represent the amount released relative to (S)-(−)-nicotine on a percentage basis.

The test system of experiment [1] is ganglionic-type nicotinic acetylcholine receptors. The experiment is described as follows: Interaction with ganglion receptors. The class given is cell-based. The note with it: at a concentration of 100 uM; relative to maximal activation by (S)-(-)-nicotine. An excerpt: By this is meant that a particular dose of compound resulting in prevention and/or treatment of a CNS disorder, is essentially ineffective in eliciting activation of certain ganglionic-type nicotinic receptors. […] As such, such compounds have poor ability to cause isotopic rubidium ion flux through nicotinic receptors in cell preparations derived from the adrenal gland. Generally, typical preferred compounds useful in carrying out the present invention activate isotopic rubidium ion flux by less than 15 percent, often by less than 5 percent, of that maximally provided by S(−) nicotine.
Determination of Interaction with Ganglion Receptors
The determination of the interaction of the compounds with ganglionic receptors was carried out in accordance with the techniques described in U.S. Pat. No. 5,597,919 to Dull et al. The maximal activation for individual compounds (Emax) was determined as a percentage of the maximal activation induced by (S)-(−)-nicotine. Reported Emax values represent the amount released relative to (S)-(−)-nicotine on a percentage basis.

The target in experiment [2] is T1, muscle-type nicotinic acetylcholine receptors (Homo sapiens, UniProt P02708+P07510+Q07001).
T1 construct: cell preparations expressing muscle-type nicotinic acetylcholine receptors; endogenous in cells
As to the kind of experiment: Interaction with muscle receptors. It is filed as cell-based. Conditions: at a concentration of 100 uM; relative to maximal activation by (S)-(-)-nicotine. An excerpt:
The compounds of the present invention, when employed in effective amounts in accordance with the method of the present invention, lack the ability to elicit activation of nicotinic receptors of human muscle to any significant degree. […] Generally, typical preferred compounds useful in carrying the present invention activate isotopic rubidium ion flux by less than 15 percent, often by less than 5 percent, of that maximally provided by S(−) nicotine.
Determination of Interaction with Muscle Receptors
The determination of the interaction of the compounds with muscle receptors was carried out in accordance with the techniques described in U.S. Pat. No. 5,597,919 to Dull et al. The maximal activation for individual compounds (Emax) was determined as a percentage of the maximal activation induced by (S)-(−)-nicotine. Reported Emax values represent the amount released relative to (S)-(−)-nicotine on a percentage basis.

The target in another experiment is CNS nicotinic receptors (Rattus norvegicus, UniProt P09483+P12390). As to the kind of experiment: Binding to relevant receptor sites. Conditions: inhibition constants calculated from IC50 values by the method of Cheng et al. As for the experimental part: Determination of Binding to Relevant Receptor Sites
Binding of the compounds to relevant receptor sites was determined in accordance with the techniques described in U.S. Pat. No. 5,597,919 to Dull et al. Inhibition constants (Ki values), reported in nM, were calculated from the IC50 values using the method of Cheng et al., Biochem, Pharmacol. 22:3099 (1973).

Sequence of CNS nicotinic receptors (P09483 31-630): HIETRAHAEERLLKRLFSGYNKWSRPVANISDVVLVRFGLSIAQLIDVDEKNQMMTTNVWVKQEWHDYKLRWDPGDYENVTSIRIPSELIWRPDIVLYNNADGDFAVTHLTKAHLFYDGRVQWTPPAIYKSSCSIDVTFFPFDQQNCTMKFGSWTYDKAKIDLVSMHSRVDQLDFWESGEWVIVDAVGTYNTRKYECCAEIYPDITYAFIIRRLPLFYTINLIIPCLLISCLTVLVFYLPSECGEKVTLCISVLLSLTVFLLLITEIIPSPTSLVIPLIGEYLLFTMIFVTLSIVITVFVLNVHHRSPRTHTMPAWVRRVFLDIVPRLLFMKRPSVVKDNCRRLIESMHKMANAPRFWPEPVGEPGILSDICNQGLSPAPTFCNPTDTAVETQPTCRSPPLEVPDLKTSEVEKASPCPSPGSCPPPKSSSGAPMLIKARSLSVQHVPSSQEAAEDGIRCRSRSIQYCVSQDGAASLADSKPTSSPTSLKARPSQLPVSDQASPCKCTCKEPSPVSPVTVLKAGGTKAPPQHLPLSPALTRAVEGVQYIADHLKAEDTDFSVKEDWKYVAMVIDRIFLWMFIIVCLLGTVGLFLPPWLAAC
Sequence of CNS nicotinic receptors (P12390 25-500): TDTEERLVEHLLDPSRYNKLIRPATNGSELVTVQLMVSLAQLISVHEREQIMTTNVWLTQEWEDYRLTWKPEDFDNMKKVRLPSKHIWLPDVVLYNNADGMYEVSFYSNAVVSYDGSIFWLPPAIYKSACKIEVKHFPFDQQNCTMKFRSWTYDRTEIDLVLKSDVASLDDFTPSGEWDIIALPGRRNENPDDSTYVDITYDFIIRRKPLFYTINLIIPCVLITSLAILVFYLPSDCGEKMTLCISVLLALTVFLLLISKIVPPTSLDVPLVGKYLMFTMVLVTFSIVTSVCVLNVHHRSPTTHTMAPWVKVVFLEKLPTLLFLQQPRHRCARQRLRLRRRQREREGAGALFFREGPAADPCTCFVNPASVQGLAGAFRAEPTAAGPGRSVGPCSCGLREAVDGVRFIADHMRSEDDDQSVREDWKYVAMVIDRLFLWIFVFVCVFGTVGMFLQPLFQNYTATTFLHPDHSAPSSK
T1 sequence (P02708 21-457): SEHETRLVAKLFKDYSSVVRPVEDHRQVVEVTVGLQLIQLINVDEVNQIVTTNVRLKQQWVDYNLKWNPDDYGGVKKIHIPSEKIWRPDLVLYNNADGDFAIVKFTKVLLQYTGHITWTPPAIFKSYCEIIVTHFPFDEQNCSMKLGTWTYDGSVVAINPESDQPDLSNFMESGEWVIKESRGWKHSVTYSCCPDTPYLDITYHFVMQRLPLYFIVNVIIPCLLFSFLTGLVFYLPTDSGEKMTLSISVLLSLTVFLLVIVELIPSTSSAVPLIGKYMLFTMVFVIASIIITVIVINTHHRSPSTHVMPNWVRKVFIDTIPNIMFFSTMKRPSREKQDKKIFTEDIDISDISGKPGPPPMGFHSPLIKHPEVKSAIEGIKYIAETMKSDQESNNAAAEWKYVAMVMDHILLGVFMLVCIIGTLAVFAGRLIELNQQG
T1 sequence (P11230 24-501 partner): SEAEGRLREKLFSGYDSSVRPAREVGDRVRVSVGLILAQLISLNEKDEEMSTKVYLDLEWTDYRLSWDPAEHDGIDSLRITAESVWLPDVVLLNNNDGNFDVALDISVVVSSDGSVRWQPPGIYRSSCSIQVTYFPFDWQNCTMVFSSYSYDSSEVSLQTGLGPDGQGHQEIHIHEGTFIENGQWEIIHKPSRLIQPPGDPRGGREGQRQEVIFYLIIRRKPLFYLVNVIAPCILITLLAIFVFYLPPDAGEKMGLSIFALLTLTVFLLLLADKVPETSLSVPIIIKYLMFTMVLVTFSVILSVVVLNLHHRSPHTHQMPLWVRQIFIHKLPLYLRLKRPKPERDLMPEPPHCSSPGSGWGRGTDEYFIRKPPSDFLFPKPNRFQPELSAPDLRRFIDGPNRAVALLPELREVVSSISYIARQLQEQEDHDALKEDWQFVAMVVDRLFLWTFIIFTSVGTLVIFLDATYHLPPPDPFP
T1 sequence (Q07001 22-517): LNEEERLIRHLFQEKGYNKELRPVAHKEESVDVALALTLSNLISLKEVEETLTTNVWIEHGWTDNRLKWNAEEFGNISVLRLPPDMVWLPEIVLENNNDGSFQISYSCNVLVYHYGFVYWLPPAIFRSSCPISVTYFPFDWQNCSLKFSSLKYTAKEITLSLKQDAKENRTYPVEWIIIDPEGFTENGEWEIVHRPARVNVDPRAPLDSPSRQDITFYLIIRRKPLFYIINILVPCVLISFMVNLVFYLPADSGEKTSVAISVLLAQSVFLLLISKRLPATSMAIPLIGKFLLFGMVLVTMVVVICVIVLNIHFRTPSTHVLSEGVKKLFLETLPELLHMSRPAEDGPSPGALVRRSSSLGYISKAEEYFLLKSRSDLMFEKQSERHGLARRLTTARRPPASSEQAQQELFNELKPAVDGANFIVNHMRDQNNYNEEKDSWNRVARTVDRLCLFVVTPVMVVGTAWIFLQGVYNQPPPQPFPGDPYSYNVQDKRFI
T1 sequence (P07510 23-517): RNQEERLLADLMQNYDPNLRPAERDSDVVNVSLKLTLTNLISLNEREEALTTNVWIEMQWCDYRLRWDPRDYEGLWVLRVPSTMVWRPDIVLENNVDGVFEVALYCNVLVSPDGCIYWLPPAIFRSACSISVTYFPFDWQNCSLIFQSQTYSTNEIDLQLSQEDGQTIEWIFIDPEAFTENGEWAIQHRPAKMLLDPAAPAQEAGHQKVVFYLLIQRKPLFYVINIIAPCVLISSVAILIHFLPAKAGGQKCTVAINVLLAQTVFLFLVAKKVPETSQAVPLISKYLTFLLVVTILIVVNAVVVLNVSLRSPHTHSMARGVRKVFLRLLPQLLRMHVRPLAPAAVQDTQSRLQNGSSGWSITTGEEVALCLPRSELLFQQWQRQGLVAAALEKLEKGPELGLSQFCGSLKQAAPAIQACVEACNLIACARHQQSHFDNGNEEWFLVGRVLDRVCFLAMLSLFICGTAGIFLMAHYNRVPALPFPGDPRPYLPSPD

What is called EC50 is the concentration giving half of the maximal effect. A high value points to lower potency in that assay. As a reminder, the Emax is the size of the effect at its maximum, as opposed to the concentration needed. Turning to `NCC/C=C/c1cccc(N)c1` [Sample No. 1, (E)-4-(3-aminophenyl)-3-buten-1-amine], in the experiment with dopamine release, the EC50 is 12.6 µM and the maximal effect (Emax) came to 74%. The “Emax at ganglionic-type receptors” value in experiment [1] stood at 4%. In experiment [2], the Emax at 100 µM was found to be 0%.

Regarding `CNCC/C=C/c1cccc(N)c1` [Sample No. 2, (E)-N-methyl-4-(3-aminophenyl)-3-buten-1-amine], in the experiment with dopamine release, a half-maximal response (EC50) required 0.913 µM and the Emax was determined as 78%. Besides, in experiment [1], the “Emax at ganglionic-type receptors” value amounted to 3%. Further, the Emax at 100 µM in experiment [2] is 7%.

Turning to `CNC(C)C/C=C/c1cccc(N)c1` (centres unmarked) [Sample No. 3, (E)-N-methyl-5-(3-aminophenyl)-4-penten-2-amine], in the experiment on dopamine release, the EC50 was 0.92 µM and the maximum response (Emax) was determined as 78%. For the same compound, the “Emax at ganglionic-type receptors” value in experiment [1] was determined as 6%. The same compound displayed a maximal effect (Emax) at 100 µM in experiment [2] of 2%.

The Ki is a dissociation constant, usually derived from enzyme kinetics or from competition with a known ligand. Regarding “(4E)-N-methyl-5-(3,4-methylenedioxyphenyl)-4-penten-2-amine hemigalactarate [Sample No. 4]”, the Ki at CNS nicotinic receptors was 11.6 µM.

For “(4E)-N-methyl-5-(3-acetamido-4-methylphenyl)-4-penten-2-amine hemigalactarate [Sample No. 10]”, the Ki on CNS nicotinic receptors is 10 µM.

Turning to “(4E)-N-methyl-5-(3-amino-4-methylphenyl)-4-penten-2-amine hemigalactarate [Sample No. 9]”, the Ki at CNS nicotinic receptors was 3.3 µM.

“(4E)-N-methyl-5-(3-fluorophenyl)-4-penten-2-amine hemigalactarate [Sample No. 6]”: the Ki on CNS nicotinic receptors is 5.69 µM.

With “(4E)-N-methyl-5-(4-methyl-3-nitrophenyl)-4-penten-2-amine hemigalactarate [Sample No. 7]”, the Ki on CNS nicotinic receptors is 6.44 µM.
